# Results reported in patent US12257235B2, “Methods and materials for using ruminococcus gnavus or clostridium sporogenes to treat gastrointestinal disorders” (Mayo Foundation for Medical Education and Research, priority 2015, dated 2025).
# “Also recorded” adds a separate entry of the source. Like-named read-outs stand apart in the source and are kept apart here.
# What was measured:
# CLOSPO_02083 [1] = molecular target: T1, CLOSPO_02083 (Clostridium sporogenes, UniProt J7SZ64); assay type: biochemical; settings: for decarboxylation of Phe by CLOSPO_02083: up to 90 mM substrate, 60 minutes
# T1 construct: His6 (N); made in house; host or cells: E. coli BL21 (DE3)
# T1 sequence (J7SZ64 whole entry): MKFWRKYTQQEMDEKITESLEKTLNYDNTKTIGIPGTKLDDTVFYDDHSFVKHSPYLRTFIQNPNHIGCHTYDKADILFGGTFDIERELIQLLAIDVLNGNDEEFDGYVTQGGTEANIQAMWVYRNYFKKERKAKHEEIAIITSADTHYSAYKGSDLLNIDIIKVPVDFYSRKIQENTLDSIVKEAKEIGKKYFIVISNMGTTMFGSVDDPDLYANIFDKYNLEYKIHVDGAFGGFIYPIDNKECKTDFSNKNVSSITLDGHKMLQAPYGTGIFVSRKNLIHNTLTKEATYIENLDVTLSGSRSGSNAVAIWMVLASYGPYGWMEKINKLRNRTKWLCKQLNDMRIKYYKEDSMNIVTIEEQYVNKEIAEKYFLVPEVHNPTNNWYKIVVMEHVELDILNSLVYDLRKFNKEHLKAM
# Description: (§1) Reaction mixtures contained 50 mM sodium phosphate pH 6.5, 300 mM NaCl, and […] PLP. Reactions were initiated by the addition of enzyme and terminated by quenching aliquots with 1 volume of MeOH and performed at 37° C. All substrates purchased from Sigma-Aldrich.
# (§2) Under the same buffer and reaction conditions, the kinetic parameters for the decarboxylation of phenylalanine by RUMGNA_01526 were determined by adding RUMGNA_01526 to a final concentration of 500 nM, and the concentration of phenylalanine varied from 5-80 mM. Reactions proceeded for 10 minutes. The kinetic parameters for the decarboxylation of tryptophan by CLOSPO_02083 were determined by adding CLOSPO_02083 to a final concentration of 100 nM, and the concentration of tryptophan varied from 0.15-24.5 mM. Reactions proceeded for 6 minutes.
# To gain insight into the substrate selectivity of CLOSPO_02083, the basic kinetic parameters were measured for CLOSPO_02083-catalyzed decarboxylation of the aromatic amino acids Trp, Tyr, and phenylalanine (Phe). To determine kcat and Km for CLOSPO_02083, the concentration of the amino acid substrate was varied under initial velocity conditions (FIGS. 3C and 4A).
# RUMGNA_01526 [2] = molecular target: T2, RUMGNA_01526 (Mediterraneibacter gnavus, UniProt A7B1V0); assay type: biochemical, Ruminococcus gnavus
# T2 construct: His6 (N); made in house; host or cells: E. coli BL21 (DE3)
# Description: as §1
# To determine the kinetic parameters for the decarboxylation of tryptophan by RUMGNA 01526, RUMGNA_01526 was added to a final concentration of 10 nM, and kcat and Km were determined by varying the concentration of tryptophan from 0.15-10 mM. Reactions proceeded for 7 minutes and were quenched as described. 100 μL of the quenched reaction was analyzed by HPLC. Peak areas were integrated and compared with a standard curve to calculate product concentration. Triplicate measurements were made from a single batch of purified enzyme. Initial velocity data were fit to the Michaelis-Menten equation by using the program GraphPad. The allosteric sigmoidal model was used by fitting to the Hill equation: y=vmax*x^h/(K0.5^h+x^h), where h is the Hill coefficient and K0.5 is the apparent concentration at half maximal velocity.
# as §2
# Basic kinetic parameters were measured for the decarboxylation of Trp, Tyr, and Phe by RUMGNA_01526.
# [3] = test system: tryptophan hydroxylase 1 (Tph1) mRNA expression in BON cells
# Description: Cells were plated at 1×10^5 per ml and grown to 90% confluency in 12-well culture plates. Culture wells were then treated (in triplicate) with tryptamine in media for 6 hours, fixed in RNA Protect (Qiagen) and subjected to qRT-PCR.
# CLOSPO_02083 [4] = molecular target: T1, CLOSPO_02083; test: Inhibition of CLOSPO_02083 tryptamine production by (S)-α-FMT, progress curves; assay type: biochemical; settings: CLOSPO_02083, 10 mM Trp
# Source text: (§3) Progress curves were fitted to the equation [P]=(vi/kobs)(1−exp(−kObst)), where P is the product formed at time t, vi is the initial velocity, and kobs is the apparent first-order rate constant for enzyme inactivation. The kobs were plotted versus inhibitor concentration and fitted to the equation kobs=kinact[I]/(Kapp+[I]), where Kapp is the apparent dissociation constant of the reversible enzyme-inhibitor complex, and kinact is the first-order rate constant for apparent irreversible conversion of the enzyme-inhibitor complex to covalently bound complex. Ki values were calculated using the equation Ki=Kapp/(1+[tryptophan])/Km,Trp) using experimentally determined Km values for tryptophan (Schirmer et al., Proc. Natl. Acad. Sci. USA, 103(11):4234-4239 (2006)).
# (§4) The production of tryptamine was measured by HPLC in the presence of various concentrations of inhibitor over 30 minutes and progress curves of the reaction were analyzed to assess the kinetics of inhibition.
# RUMGNA_01526 [5] = molecular target: T2, RUMGNA_01526; test: Inhibition of RUMGNA_01526 tryptamine production by (S)-α-FMT, progress curves; assay type: biochemical, Ruminococcus gnavus; settings: RUMGNA_01526, 2.5 mM Trp
# Source text: as §3, §4
# [6] = test system: proximal colon, stripped of external muscle layers; test: Ussing chamber short circuit current of proximal colon from GF, HM and CR mice; settings: for cumulative concentration response curves (intestinal secretion): serosal application, GF vs HM and CR mice; for EC50: Mus musculus; for EC50 / Emax (Δ Isc): serosal
# Description: Colonic mucosal transepithelial resistance (TER) was measured at the beginning of each experiment and FITC Dextran (4 k Da) flux was determined from the linear fit of samples obtained from the serosal side every 5 minutes for 30 minutes after adding 1 mg/mL FITC-Dextran to the mucosal side. Change in short circuit current (Δ lsc) was determined in response to electrical field stimulation (EFS) using foil electrodes on the submucosal side (30-150V, 100 0.5 ms pulses at 1-2 Hz). There was no significant difference in Δ lsc between GF and HM in response to EFS at 1 Hz (138±42 vs 202±71 μA/cm^2; n=4; p>0.05) or 2 Hz (180±28 vs 252±70 μA/cm^2; n=4; p>0.05).
# Acetylcholine (Ach) in increasing concentrations (0.01-300 μM) on the serosal side was used as a control for tissue reactivity. Cumulative concentration response curves induced by serosal ACh were not different between GF and HM as evident by similar Emax (261±38 vs 299±27 μA/cm^2; n=5; p>0.05) and EC50 (20.6±3 vs 22.7±9 μM) values.
# [7] = test system: full-thickness colonic segments; test: Open organ bath intraluminal pressure of mouse colonic segments ex vivo
# Description: Preparations of full-thickness colonic segments (˜1.5 cm) were allowed to equilibrate in 37° C. Kreb's-jacketed organ baths with their distal ends opening to a pressure transducer and maintained under basal pressure of 5-cm column of vehicle (RL). The proximal end was closed during pressure recordings but opened to allow luminal infusion of vehicle or tryptamine in solution (100 μM, 1 mM and 3 mM; 10 minutes per treatment; n=5-7 mice).
# [8] = test system: proximal colon, stripped of external muscle layers; test: Ussing chamber short circuit current of proximal colon from GF, HM and CR mice; settings: HM or CR mice
# 5HTR4 = settings: for response (Δ Isc) to mucosal application / response (Δ Isc) to serosal application: 5HTR4 KO mice
# Description: The response to […] (5HT; 0.003-300 μM) on the mucosal or serosal side and tryptamine (0.003-3000 μM) on the mucosal or serosal side was determined in segments of proximal colon, stripped of external muscle layers, from both 5HTR4 KO and WT mice.
# [9] = test system: proximal-mid colon, stripped of external muscle layers; test: Ion secretion from the murine colon, Ussing chamber short circuit current; design: species or system SvEv129 mice; settings: 3 mM tryptamine, mucosal side
# Description: A segment of proximal-mid colon, stripped of external muscle layers from each of three SvEv129 mice was mounted in 0.3 cm^2 area, 4 mL Ussing chamber. […] (FIG. 6).
# The function of tryptamine in the context of microbe-host signaling in the gut was examined. An experiment to test whether tryptamine is capable of inducing ion secretion by intestinal epithelial cells was performed. Using an Ussing chamber, a segment of proximal-mid murine colon mucosa was exposed to two concentrations of tryptamine and the change of short circuit current was measured.
# [10] = 1 μM enzyme, 2.28 mM tyrosine, 90 minutes
# [11] = at the highest concentration of Tyr tested
# [12] = any of the tryptamine concentrations
compound,measurement,setting,value
"N[C@@H](Cc1ccccc1)C(=O)O [Phe, phenylalanine]",decarboxylation of Phe by CLOSPO_02083,CLOSPO_02083 [1]; 1 μM enzyme,undetectable
same,decarboxylation of Phe by CLOSPO_02083,"CLOSPO_02083 [1]; 1 μM enzyme, listed as phenylalanine",not observed
N[C@@H](Cc1ccc(O)cc1)C(=O)O [tyrosine],decarboxylation of tyrosine by CLOSPO_02083,CLOSPO_02083 [1]; [10],observed
same,decarboxylation of tyrosine by RUMGNA_01526,RUMGNA_01526 [2]; [10],observed
"N[C@@H](Cc1c[nH]c2ccccc12)C(=O)O [Trp, tryptophan]",efficiency of decarboxylating Trp relative to Tyr,CLOSPO_02083 [1]; [11],600 fold
same,kcat,CLOSPO_02083 [1]; decarboxylation of Trp by CLOSPO_02083,20 s⁻¹
same,Km,"CLOSPO_02083 [1]; decarboxylation of Trp by CLOSPO_02083, 100 nM enzyme, 37° C.",2800 µM
same,Km for Trp relative to Phe (lower),RUMGNA_01526 [2]; RUMGNA_01526,70 fold
same,catalytic efficiency for Trp relative to Phe,RUMGNA_01526 [2]; RUMGNA_01526,> 1000 fold
same,kcat for Trp relative to Phe (higher),RUMGNA_01526 [2]; RUMGNA_01526,19 fold
same,efficiency of decarboxylating Trp relative to Tyr,RUMGNA_01526 [2]; [11],1000 fold
same,kcat,RUMGNA_01526 [2]; decarboxylation of Trp by RUMGNA_01526,73.33 s⁻¹
same,Km,"RUMGNA_01526 [2]; decarboxylation of Trp by RUMGNA_01526, 10 nM enzyme, 37° C.",1100 ± 100 µM
"CCCC(=O)O [Butyrate, butyrate]",Tph1 mRNA induction above controls,[3]; butyrate 500 μM,3.5 fold
same,Tph1 mRNA induction above controls,[3]; butyrate 1 mM,2.5 fold
"N[C@@](CF)(Cc1c[nH]c2ccccc12)C(=O)O [(S)-α-FMT, (S)-α-fluoromethyltryptophan]",Ki,CLOSPO_02083 [4],0.2 µM
same,kinact,CLOSPO_02083 [4],0.00167 s⁻¹
same,Ki,RUMGNA_01526 [5],178 µM
same,kinact,RUMGNA_01526 [5],0.02 s⁻¹
NCCc1c[nH]c2ccccc12 [tryptamine],alteration of Tph1 mRNA levels,"[3]; 1 μM, 5 μM, 10 μM and 20 μM, 6 hours","None of the tested tryptamine concentrations (1 μM, 5 μM, 10 μM, and 20 μM) reproducibly showed a significant alteration"
same,cumulative concentration response curves (intestinal secretion),[6],significantly higher in GF compared to HM and CR
same,"contractile duration, measured at half amplitude, vs vehicle",[7]; any of the luminal tryptamine treatments,not significantly different
same,"contractile magnitude, area under the curve, vs vehicle",[7]; [12],not significantly different
same,mean contractile amplitude vs vehicle,[7]; [12],not significantly different
same,contractile frequency vs vehicle controls,"[7]; luminal 100 μM, 1 mM and 3 mM",not significantly different
same,contractile frequency,"[7]; luminal 1 mM tryptamine, vehicle control 4.1±0.6, P=0.15",5.9±0.8
same,biological effect in the presence of 5HT3 receptor antagonist,[8],did not block
same,biological effect in the presence of 5HT4 receptor antagonist,[8],blocked the biological effect
same,maximal response (Emax) in the presence of 5HT3 receptor antagonist,[8],is not blocked
same,maximal response (Emax) in the presence of 5HT4 receptor antagonist,[8],can be blocked
same,response (Δ Isc) to mucosal application,5HTR4,no response
same,response (Δ Isc) to serosal application,5HTR4,no response
same,Δ Isc response,"5HTR4; mucosal application of 3000 μM, 5HTR4 WT mice, maximum response not reached",99.5±30.7
same,Emax (Δ Isc),"5HTR4; serosal application, 5HTR4 WT mice",110±17 μA/cm2
same,change in short circuit current (ion secretion),[9],significant change in short circuit current; also recorded: significant increase
CC(=O)O [acetate],Tph1 expression induction,[3]; acetate 10 mM,2.5 fold
same,Tph1 expression induction,[3]; acetate 30 mM,3.2 fold
same,Tph1 expression induction,[3]; acetate 50 mM,2.2 fold
"CC(=O)OCC[N+](C)(C)C [ACh, Acetylcholine]",EC50,[6]; GF mice,20.6 ± 3 µM
same,EC50,[6]; HM mice,22.7 ± 9 µM
same,Emax (Δ Isc),[6]; GF mice,261±38 μA/cm^2
same,Emax (Δ Isc),[6]; HM mice,299±27 μA/cm^2
"NCCc1c[nH]c2ccc(O)cc12 [serotonin, 5-hydroxy tryptamine, reference compound]",cumulative concentration response curves (intestinal secretion),[6],significantly higher in GF compared to HM and CR
same,biological effect in the presence of 5HT3 receptor antagonist,[8],blocked the biological effect
same,biological effect in the presence of 5HT4 receptor antagonist,[8],blocked the biological effect
same,maximal response (Emax) in the presence of 5HT3 receptor antagonist,[8],can be blocked
same,maximal response (Emax) in the presence of 5HT4 receptor antagonist,[8],can be blocked
same,response (Δ Isc) to mucosal application,5HTR4,no response
same,response (Δ Isc) to serosal application,5HTR4,decreased responsiveness
